We go through 24 compounds from ChEMBL document CHEMBL5291721, “A preclinical secondary pharmacology resource illuminates target-adverse drug reaction associations of marketed drugs” (Nat Commun, 2023).

In assay [1] the target is Voltage-gated inwardly rectifying potassium channel KCNH2 (Homo sapiens, UniProt Q12809). The class given is functional. The note with it: read-out: AC50.
In a further assay the target is Acetylcholinesterase (Homo sapiens, UniProt P22303). The format is functional.
For assay [2], the target named is Prostaglandin G/H synthase 1 (Homo sapiens, UniProt P23219). The class given is functional.
In assay [3] the target is T1, Thromboxane A2 receptor (Homo sapiens, UniProt P21731).
T1 sequence (P21731 whole entry): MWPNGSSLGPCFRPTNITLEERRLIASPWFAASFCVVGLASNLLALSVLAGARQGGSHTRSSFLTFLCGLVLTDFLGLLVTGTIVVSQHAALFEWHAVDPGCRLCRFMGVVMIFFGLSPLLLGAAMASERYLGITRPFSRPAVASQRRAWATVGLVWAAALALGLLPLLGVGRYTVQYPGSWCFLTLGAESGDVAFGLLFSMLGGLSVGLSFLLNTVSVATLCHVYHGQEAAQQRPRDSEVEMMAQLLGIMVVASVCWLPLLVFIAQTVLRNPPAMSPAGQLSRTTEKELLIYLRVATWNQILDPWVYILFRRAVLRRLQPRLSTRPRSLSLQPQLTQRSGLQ
The format is functional, cell-based.

Assay [4] concerns the target 5-hydroxytryptamine receptor 2B (Homo sapiens, UniProt P41595). The class given is functional, cell-based.
The target of assay [5] is Sodium-dependent dopamine transporter (Homo sapiens, UniProt Q01959).
A further assay deals with T2, Adenosine receptor A3 (Homo sapiens, UniProt P0DMS8).
T2 sequence (P0DMS8 whole entry): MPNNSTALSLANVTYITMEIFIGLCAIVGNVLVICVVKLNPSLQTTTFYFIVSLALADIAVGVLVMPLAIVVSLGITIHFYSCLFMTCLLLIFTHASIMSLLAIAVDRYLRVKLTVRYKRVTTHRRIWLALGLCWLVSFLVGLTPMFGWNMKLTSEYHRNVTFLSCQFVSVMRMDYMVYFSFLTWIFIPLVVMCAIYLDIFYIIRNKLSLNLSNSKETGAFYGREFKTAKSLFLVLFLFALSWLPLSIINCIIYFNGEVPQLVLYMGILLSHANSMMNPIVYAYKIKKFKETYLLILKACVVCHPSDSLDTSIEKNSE

Assay [6] has as its target T3, Alpha-1A adrenergic receptor (Homo sapiens, UniProt P35348).
T3 sequence (P35348 whole entry): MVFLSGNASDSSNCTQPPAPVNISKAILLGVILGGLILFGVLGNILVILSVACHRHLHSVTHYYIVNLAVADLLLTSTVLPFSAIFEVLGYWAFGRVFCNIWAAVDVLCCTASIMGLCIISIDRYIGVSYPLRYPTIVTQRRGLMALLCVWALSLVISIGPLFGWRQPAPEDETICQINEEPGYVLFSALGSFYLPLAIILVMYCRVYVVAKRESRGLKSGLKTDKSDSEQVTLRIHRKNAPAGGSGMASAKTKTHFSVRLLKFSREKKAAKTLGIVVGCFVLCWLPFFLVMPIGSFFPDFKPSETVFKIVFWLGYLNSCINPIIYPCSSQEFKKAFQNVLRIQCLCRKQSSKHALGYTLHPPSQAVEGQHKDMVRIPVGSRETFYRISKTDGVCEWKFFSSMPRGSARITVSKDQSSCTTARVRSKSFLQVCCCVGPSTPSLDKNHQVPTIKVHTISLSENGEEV
The format is functional, cell-based.

The target in another assay is Mu-type opioid receptor (Homo sapiens, UniProt P35372).
Assay [7] deals with Sodium-dependent noradrenaline transporter (Homo sapiens, UniProt P23975).
The target in the next assay is Prothrombin (Homo sapiens, UniProt P00734). The format is functional.
In assay [8] the target is T4, Amine oxidase [flavin-containing] A (Homo sapiens, UniProt P21397).
T4 sequence (P21397 whole entry): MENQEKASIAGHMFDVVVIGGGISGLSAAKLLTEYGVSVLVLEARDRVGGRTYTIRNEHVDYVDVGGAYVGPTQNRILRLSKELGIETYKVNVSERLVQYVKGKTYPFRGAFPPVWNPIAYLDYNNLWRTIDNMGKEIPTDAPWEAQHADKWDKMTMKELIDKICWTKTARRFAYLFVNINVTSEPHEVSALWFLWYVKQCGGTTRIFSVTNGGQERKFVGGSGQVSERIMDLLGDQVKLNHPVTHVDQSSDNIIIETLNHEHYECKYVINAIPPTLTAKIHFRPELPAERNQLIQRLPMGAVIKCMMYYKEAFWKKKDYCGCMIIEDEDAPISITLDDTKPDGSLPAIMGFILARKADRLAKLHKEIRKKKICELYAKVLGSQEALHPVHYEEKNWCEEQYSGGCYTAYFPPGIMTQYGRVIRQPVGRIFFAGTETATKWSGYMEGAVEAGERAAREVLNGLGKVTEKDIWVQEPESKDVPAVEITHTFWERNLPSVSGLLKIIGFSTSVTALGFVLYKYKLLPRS
The format is functional.

Assay [9] addresses T1, Thromboxane A2 receptor. The format is functional, cell-based. This is another data set of the same source.
In assay [10] the target is 3',5'-cyclic-AMP phosphodiesterase 4A (Homo sapiens, UniProt P27815). The class given is functional.
In the next assay the target is D(1A) dopamine receptor (Homo sapiens, UniProt P21728).

Bounds are passed on as bounds.
Further: assay procedure not described here.

Sequence of Sodium-dependent noradrenaline transporter (P23975 whole entry): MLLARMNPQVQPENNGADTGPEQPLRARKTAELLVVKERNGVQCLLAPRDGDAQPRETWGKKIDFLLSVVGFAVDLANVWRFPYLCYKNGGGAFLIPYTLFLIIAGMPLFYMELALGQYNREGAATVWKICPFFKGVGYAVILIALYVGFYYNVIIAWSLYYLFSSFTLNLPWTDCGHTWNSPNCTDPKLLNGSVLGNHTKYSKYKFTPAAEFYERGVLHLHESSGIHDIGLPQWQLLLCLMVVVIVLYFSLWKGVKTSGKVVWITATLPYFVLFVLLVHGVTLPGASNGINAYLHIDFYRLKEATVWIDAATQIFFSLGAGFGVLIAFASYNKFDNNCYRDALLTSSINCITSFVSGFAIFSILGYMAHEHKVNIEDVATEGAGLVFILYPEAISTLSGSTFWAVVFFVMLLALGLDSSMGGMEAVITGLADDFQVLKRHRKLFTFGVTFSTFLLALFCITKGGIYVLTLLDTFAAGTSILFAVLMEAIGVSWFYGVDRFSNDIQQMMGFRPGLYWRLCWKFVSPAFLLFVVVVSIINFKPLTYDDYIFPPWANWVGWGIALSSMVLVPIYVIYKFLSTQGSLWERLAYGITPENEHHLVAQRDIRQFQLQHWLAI
Sequence of Voltage-gated inwardly rectifying potassium channel KCNH2 (Q12809 whole entry): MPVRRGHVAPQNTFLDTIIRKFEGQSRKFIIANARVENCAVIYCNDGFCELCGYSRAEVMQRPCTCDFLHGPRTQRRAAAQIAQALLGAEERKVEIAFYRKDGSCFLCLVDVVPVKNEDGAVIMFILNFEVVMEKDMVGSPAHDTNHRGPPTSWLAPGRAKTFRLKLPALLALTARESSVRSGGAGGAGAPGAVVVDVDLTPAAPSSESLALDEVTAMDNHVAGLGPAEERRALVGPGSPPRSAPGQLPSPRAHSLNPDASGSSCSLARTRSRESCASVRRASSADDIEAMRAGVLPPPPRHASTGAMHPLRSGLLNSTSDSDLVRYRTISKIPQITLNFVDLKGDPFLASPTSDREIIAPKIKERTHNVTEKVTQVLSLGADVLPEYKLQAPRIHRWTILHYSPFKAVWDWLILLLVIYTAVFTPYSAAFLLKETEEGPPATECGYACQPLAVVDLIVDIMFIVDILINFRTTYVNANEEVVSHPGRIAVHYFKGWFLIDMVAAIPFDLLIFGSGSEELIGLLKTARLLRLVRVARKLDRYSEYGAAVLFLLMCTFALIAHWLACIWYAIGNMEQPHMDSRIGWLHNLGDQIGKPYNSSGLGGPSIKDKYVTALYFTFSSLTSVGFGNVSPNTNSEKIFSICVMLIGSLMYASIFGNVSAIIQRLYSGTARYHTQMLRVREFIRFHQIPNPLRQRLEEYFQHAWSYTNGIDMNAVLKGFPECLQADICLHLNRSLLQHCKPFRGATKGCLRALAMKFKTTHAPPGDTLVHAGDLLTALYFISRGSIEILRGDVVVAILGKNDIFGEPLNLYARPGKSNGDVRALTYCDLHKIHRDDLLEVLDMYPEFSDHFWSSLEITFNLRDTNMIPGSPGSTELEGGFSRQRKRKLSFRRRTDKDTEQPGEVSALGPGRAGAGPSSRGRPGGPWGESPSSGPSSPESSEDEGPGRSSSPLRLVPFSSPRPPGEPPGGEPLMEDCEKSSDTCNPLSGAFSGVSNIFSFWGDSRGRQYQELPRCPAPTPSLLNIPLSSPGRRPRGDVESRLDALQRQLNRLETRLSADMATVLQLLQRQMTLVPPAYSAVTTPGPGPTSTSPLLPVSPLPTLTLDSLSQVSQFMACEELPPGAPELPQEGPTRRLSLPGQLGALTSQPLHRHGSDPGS
Sequence of 3',5'-cyclic-AMP phosphodiesterase 4A (P27815 whole entry): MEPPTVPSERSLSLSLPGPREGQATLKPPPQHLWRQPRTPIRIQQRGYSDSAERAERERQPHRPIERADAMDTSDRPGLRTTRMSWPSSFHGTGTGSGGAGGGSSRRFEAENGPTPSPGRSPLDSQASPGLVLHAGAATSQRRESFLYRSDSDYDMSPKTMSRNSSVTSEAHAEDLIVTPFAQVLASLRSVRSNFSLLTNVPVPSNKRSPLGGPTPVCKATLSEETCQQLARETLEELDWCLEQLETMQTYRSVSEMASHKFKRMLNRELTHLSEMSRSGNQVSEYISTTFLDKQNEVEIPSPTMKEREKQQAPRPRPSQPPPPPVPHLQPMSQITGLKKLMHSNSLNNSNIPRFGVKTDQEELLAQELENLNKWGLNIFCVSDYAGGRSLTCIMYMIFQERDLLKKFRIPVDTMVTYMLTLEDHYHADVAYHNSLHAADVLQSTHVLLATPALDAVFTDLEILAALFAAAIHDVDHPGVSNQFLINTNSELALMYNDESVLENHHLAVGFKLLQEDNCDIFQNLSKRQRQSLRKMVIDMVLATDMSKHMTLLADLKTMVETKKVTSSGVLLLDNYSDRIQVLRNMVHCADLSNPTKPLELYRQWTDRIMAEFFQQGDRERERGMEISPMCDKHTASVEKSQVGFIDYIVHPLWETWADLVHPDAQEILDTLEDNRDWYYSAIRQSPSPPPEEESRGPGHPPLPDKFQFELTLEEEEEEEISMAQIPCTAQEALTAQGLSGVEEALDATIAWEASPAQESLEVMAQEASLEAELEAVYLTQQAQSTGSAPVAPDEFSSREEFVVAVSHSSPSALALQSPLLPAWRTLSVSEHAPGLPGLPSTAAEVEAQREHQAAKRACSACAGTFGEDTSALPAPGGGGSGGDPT
Sequence of Sodium-dependent dopamine transporter (Q01959 whole entry): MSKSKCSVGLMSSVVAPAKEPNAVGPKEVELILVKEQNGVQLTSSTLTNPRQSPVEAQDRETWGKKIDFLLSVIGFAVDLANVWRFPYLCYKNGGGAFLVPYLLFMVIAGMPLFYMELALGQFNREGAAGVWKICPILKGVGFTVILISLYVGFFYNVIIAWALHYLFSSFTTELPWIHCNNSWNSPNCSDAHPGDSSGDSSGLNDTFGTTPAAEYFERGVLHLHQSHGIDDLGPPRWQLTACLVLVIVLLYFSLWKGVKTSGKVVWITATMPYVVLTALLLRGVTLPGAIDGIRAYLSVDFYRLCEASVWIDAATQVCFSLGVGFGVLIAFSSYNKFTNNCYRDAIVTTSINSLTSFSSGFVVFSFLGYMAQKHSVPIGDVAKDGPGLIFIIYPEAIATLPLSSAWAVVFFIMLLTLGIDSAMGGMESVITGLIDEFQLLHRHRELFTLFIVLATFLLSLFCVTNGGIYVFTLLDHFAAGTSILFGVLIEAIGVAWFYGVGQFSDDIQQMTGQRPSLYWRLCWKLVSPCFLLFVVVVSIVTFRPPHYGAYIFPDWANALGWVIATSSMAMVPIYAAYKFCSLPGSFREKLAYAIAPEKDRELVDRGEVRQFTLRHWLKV
Sequence of Acetylcholinesterase (P22303 whole entry): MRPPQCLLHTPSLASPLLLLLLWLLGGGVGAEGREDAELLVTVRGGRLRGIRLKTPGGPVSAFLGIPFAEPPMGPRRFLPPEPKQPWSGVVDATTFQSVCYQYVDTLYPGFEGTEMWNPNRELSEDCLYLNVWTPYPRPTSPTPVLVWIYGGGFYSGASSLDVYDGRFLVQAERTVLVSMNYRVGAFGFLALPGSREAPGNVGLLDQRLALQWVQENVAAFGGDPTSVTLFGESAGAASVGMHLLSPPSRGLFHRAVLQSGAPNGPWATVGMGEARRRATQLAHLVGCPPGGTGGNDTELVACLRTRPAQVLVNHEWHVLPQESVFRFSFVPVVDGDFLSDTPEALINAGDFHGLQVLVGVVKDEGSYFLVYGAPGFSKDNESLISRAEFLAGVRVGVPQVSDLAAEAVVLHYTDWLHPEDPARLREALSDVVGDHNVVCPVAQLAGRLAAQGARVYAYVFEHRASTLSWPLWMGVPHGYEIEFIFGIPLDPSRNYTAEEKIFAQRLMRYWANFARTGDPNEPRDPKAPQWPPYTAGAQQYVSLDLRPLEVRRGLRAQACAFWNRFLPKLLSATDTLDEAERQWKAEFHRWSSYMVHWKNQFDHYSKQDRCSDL
Sequence of Mu-type opioid receptor (P35372 whole entry): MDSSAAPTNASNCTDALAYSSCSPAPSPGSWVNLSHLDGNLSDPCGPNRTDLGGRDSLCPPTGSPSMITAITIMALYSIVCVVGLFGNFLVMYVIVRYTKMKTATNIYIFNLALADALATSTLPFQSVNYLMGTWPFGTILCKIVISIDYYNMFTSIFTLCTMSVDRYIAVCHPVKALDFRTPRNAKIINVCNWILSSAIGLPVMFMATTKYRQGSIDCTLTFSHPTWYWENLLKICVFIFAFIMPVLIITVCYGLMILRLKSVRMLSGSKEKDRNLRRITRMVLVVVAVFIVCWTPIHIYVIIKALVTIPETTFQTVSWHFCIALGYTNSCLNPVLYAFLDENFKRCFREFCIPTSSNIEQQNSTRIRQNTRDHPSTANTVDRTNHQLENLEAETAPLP
Sequence of Prostaglandin G/H synthase 1 (P23219 whole entry): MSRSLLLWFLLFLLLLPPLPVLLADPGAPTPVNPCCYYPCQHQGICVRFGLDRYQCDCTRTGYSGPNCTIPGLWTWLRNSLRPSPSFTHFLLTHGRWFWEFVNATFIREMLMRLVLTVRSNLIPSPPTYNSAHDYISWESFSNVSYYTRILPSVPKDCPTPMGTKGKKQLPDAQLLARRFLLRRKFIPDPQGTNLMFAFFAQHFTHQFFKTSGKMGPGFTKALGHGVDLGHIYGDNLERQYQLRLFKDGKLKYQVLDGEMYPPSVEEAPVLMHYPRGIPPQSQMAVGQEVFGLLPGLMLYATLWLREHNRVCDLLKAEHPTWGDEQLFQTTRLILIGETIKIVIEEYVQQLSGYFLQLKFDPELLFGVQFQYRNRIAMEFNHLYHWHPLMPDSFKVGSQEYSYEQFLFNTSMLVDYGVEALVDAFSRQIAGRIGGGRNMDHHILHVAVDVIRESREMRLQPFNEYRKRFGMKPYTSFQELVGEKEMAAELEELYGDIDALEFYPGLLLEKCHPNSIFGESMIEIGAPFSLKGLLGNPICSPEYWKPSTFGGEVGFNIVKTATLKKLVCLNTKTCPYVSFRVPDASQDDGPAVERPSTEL

`Cc1c(O)cccc1C(=O)N[C@@H](CSc1ccccc1)[C@H](O)CN1C[C@H]2CCCC[C@H]2C[C@H]1C(=O)NC(C)(C)C`: the half-maximal activity concentration (AC50) in [1] was more than 30 µM; on Acetylcholinesterase, more than 30 µM; in [2] it was more than 30 µM; on Thromboxane A2 receptor [3], 13.2 µM; in assay [4], more than 30 µM; in [5] it was 23.1 µM. The half-maximal activity concentration (AC50) at Adenosine receptor A3 was 2.84 µM; in assay [6], more than 30 µM; at Mu-type opioid receptor it was 15.3 µM; in assay [7], 18.2 µM; at Prothrombin it was more than 30 µM; in [8], more than 30 µM. The AC50 (on Thromboxane A2 receptor [9]; in [10]) was more than 30 µM each time.
For `NS(=O)(=O)c1cc(-c2nnn[nH]2)c(NCc2cccs2)cc1Cl` [AZOSEMIDE], in assay [1], the AC50 was more than 30 µM.
The same measure, in the same setting: with `C[N+](C)(C)CC(=O)O` [BETAINE] the figure was more than 30 µM.
As to `CN(Cc1cc(Br)cc(Br)c1N)C1CCCCC1` [BROMHEXINE], the AC50 in assay [1] was 20 µM; on Acetylcholinesterase, more than 30 µM; in assay [2], more than 30 µM; on Thromboxane A2 receptor [3] it was more than 30 µM; in [4] it was more than 30 µM; in [5] it was 12.3 µM. For the same compound, the AC50 on D(1A) dopamine receptor was more than 30 µM; at Adenosine receptor A3, 27.9 µM; in assay [6], more than 30 µM; on Mu-type opioid receptor, more than 30 µM; in assay [7], 22 µM; on Prothrombin, more than 30 µM. The concentration at half-maximal activity (AC50) is more than 30 µM in [8], more than 30 µM on Thromboxane A2 receptor [9] and 26.3 µM in [10].
As to `CCCC(=O)N1CCCN(c2nc(N)c3cc(OC)c(OC)cc3n2)CC1` [BUNAZOSIN], in [1], the AC50 is 4.5 µM.
Still for that read-out and setting: the figure for `C[N+](C)(C)CCOC(N)=O` [CARBAMOYLCHOLINE] is more than 30 µM.
Turning to `N[C@@H](CSCC(=O)O)C(=O)O` [CARBOCYSTEINE], in [1], the AC50 is more than 30 µM.
The same measure, in the same setting: the figure for `CC(C)(N)Cc1ccc(Cl)cc1` [CHLORPHENTERMINE] is more than 30 µM.
On to `CN1CCN(C(c2ccccc2)c2ccccc2)CC1` [CYCLIZINE], for which the AC50 is 20 µM in [1]; more than 30 µM on Acetylcholinesterase; more than 30 µM in assay [2]; more than 30 µM on Thromboxane A2 receptor [3]; more than 30 µM in assay [4]; 1.98 µM in assay [5]. Further, the AC50 on D(1A) dopamine receptor was 14.4 µM; at Adenosine receptor A3, 9.64 µM; in assay [6], more than 30 µM; on Mu-type opioid receptor it was 24.9 µM; in assay [7], more than 30 µM; at Prothrombin it was more than 30 µM. For the same compound, the half-maximal activity concentration (AC50) (in [8]; on Thromboxane A2 receptor [9]; in [10]) was more than 30 µM throughout.
For `CN(C)[C@@H]1C(O)=C(C(N)=O)C(=O)[C@@]2(O)C(O)=C3C(=O)c4c(O)ccc(Cl)c4[C@@H](O)[C@H]3C[C@@H]12` [DEMECLOCYCLINE], the AC50 in assay [1] is more than 30 µM.
With `NS(=O)(=O)c1cc(Cl)c(Cl)c(S(N)(=O)=O)c1` [DICHLORPHENAMIDE], the half-maximal activity concentration (AC50) in [1] is more than 30 µM.
The same measure, in the same setting: with `C=C1C[C@@H]2[C@H](CC[C@]3(C)C(=O)CC[C@@H]23)[C@@]2(C)C=CC(=O)C=C12` [EXEMESTANE] the figure was more than 30 µM; with `CC(C(O)c1ccc(O)cc1)N1CCC(Cc2ccccc2)CC1` (configuration not stated) [IFENPRODIL], 0.67 µM.
Turning to `CC(=O)N(CC(O)CO)c1c(I)c(C(=O)NCC(O)CO)c(I)c(C(=O)NCC(O)CO)c1I` (configuration not stated) [IOHEXOL], in [1], the AC50 is more than 30 µM.
Still for that read-out and setting: the figure for `CN(CCCN1c2ccccc2CCc2ccccc21)CC(=O)c1ccc(Cl)cc1` [LOFEPRAMINE] is 3.3 µM.
Regarding `CC(=O)O[C@]1(C(C)=O)CC[C@H]2[C@@H]3C[C@H](C)C4=CC(=O)CC[C@]4(C)[C@H]3CC[C@@]21C` [MEDROXYPROGESTERONE ACETATE], the concentration at half-maximal activity (AC50) (in assay [1]; on Acetylcholinesterase; in assay [2]; on Thromboxane A2 receptor [3]; in [4]; in assay [5]) was more than 30 µM in each case. The AC50 (on D(1A) dopamine receptor; in assay [6]; at Mu-type opioid receptor; in assay [7]; at Prothrombin; in assay [8]) was more than 30 µM in each case. Besides, the half-maximal activity concentration (AC50) (on Thromboxane A2 receptor [9]; in [10]) was more than 30 µM each time.
Take `Cn1cc[nH]c1=S` [METHIMAZOLE]: the AC50 (at Acetylcholinesterase; in [2]; at Thromboxane A2 receptor [3]; in [4]; in assay [5]; at D(1A) dopamine receptor) was more than 30 µM in each case. Moreover, the half-maximal activity concentration (AC50) (at Adenosine receptor A3; in assay [6]; on Mu-type opioid receptor; in assay [7]; at Prothrombin; in assay [8]) was more than 30 µM in each case. In addition, the AC50 (on Thromboxane A2 receptor [9]; in assay [10]) was more than 30 µM each time.
For `CO[C@@]12[C@H](COC(N)=O)C3=C(C(=O)C(C)=C(N)C3=O)N1C[C@@H]1N[C@@H]12` [MITOMYCIN], the concentration at half-maximal activity (AC50) (on Acetylcholinesterase; in [2]; on Thromboxane A2 receptor [3]; in assay [4]; in [5]; on D(1A) dopamine receptor) was more than 30 µM each time. Moreover, the AC50 (at Adenosine receptor A3; in assay [6]; at Mu-type opioid receptor; in assay [7]; at Prothrombin; in assay [8]) was more than 30 µM in each case. For the same compound, the concentration at half-maximal activity (AC50) (at Thromboxane A2 receptor [9]; in assay [10]) was more than 30 µM in each case.
As to `CN(C/C=C/c1ccccc1)Cc1cccc2ccccc12` [NAFTIFINE], the AC50 in [1] was found to be 2.02 µM.
With `CC(C)NCC1CCc2cc(CO)c([N+](=O)[O-])cc2N1` (configuration not stated) [OXAMNIQUINE], the AC50 in assay [1] is more than 30 µM.
In the case of `Oc1cccc2cccnc12` [OXYQUINOLINE], the concentration at half-maximal activity (AC50) (on Acetylcholinesterase; in assay [2]; at Thromboxane A2 receptor [3]; in assay [4]; in [5]; at D(1A) dopamine receptor) was more than 30 µM each time. Also, the AC50 on Adenosine receptor A3 is more than 30 µM; in [6], 20.8 µM; at Mu-type opioid receptor, more than 30 µM; in assay [7], more than 30 µM; at Prothrombin, more than 30 µM; in assay [8] it was more than 30 µM. For the same compound, the half-maximal activity concentration (AC50) (at Thromboxane A2 receptor [9]; in assay [10]) was more than 30 µM each time.
For the compound `CN(C)CCCN1c2ccccc2Sc2ccccc21` [PROMAZINE], in [1], the AC50 came out at 8.1 µM.
The same measure, in the same setting: with `O=P(O)(O)C(O)(Cc1cccnc1)P(=O)(O)O` [RISEDRONIC ACID] the figure was more than 30 µM.
Same read-out and setting: the figure for `CC(=O)N[C@H]1[C@H]([C@H](O)[C@H](O)CO)OC(C(=O)O)=C[C@@H]1N=C(N)N` [ZANAMIVIR] is more than 30 µM.

The term AC50 denotes the concentration at which the activity in the assay is half-maximal.
